# Experimental data taken from PMC12090182, “Repurposing of the RIPK1-Selective Benzo[1,4]oxazepin-4-one Scaffold for the Development of a Type III LIMK1/2 Inhibitor” (ACS Chemical Biology, 2025).
# Key:
# Test in all cases: scanMAX KINOMEscan (Eurofins)
# Format in all cases: binding
# SRPK3 = SRPK3 (Homo sapiens, UniProt Q9UPE1); settings: compound concentration 100 nM; Entrez SRPK3; read-out: Percent Control
# Excerpt: (§1) Supplement cb5c00097_si_002.xlsx, sheet "Table S6 (Eurofins Selectivity)" | column: Percent Control
# ROS1 = ROS1 (Homo sapiens, UniProt P08922); settings: 1000 nM, read-out: Percent Control
# Excerpt: as §1
# EIF2AK1 = EIF2AK1 (Homo sapiens, UniProt Q9BQI3); settings: 1000 nM, read-out: Percent Control
# Excerpt: as §1
# [1] = target: JAK3(JH1domain-catalytic) (Homo sapiens, UniProt P52333); settings: 1000 nM, read-out: Percent Control
# Excerpt: as §1
# VRK2 = VRK2 (Homo sapiens, UniProt Q86Y07); settings: compound concentration 100 nM; Entrez VRK2; read-out: Percent Control
# Excerpt: as §1
# PRKD3 = PRKD3 (Homo sapiens, UniProt O94806); settings: 1000 nM, read-out: Percent Control
# Excerpt: as §1
# YES = YES (Homo sapiens, UniProt P07947); settings: 1000 nM, read-out: Percent Control
# Sequence of YES (P07947 whole entry): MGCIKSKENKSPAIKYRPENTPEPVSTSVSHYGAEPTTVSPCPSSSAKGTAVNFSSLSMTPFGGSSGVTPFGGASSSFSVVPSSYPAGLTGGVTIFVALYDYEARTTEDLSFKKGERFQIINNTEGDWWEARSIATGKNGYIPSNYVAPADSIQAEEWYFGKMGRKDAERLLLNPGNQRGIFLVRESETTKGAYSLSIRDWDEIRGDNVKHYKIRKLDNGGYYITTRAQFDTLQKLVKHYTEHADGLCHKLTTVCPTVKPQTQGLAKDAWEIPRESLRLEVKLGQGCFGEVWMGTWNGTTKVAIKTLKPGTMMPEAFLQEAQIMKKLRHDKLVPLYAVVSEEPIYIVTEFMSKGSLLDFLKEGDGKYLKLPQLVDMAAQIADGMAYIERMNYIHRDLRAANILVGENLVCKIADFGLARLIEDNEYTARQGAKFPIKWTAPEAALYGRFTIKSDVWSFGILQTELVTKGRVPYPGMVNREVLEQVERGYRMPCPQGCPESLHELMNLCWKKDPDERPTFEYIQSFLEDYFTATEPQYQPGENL
# Excerpt: as §1
# ERBB3 = ERBB3 (Homo sapiens, UniProt P21860); settings: 1000 nM, read-out: Percent Control
# Excerpt: as §1
# PYK2 = PYK2 (Homo sapiens, UniProt Q14289); settings: 1000 nM, read-out: Percent Control
# Excerpt: as §1
# NEK1 = NEK1 (Homo sapiens, UniProt Q96PY6); settings: compound concentration 100 nM; Entrez NEK1; read-out: Percent Control
# Excerpt: as §1
# MEK4 = MEK4 (Homo sapiens, UniProt P45985); settings: compound concentration 100 nM; Entrez MAP2K4; read-out: Percent Control
# Excerpt: as §1
# DLK = DLK (Homo sapiens, UniProt Q12852); settings: 1000 nM, read-out: Percent Control
# Excerpt: as §1
# PKAC-beta = PKAC-beta (Homo sapiens, UniProt P22694); settings: 1000 nM, read-out: Percent Control
# Excerpt: as §1
# CDK9 = CDK9 (Homo sapiens, UniProt P50750); settings: 1000 nM, read-out: Percent Control
# Excerpt: as §1
# WNK3 = WNK3 (Homo sapiens, UniProt Q9BYP7); settings: 1000 nM, read-out: Percent Control
# Excerpt: as §1
# [2] = target: RSK4(Kin.Dom.2-C-terminal) (Homo sapiens, UniProt Q9UK32); settings: 1000 nM, read-out: Percent Control
# Excerpt: as §1
# BMPR1B = BMPR1B (Homo sapiens, UniProt O00238); settings: read-out: Percent Control
# Sequence of BMPR1B (O00238 14-502): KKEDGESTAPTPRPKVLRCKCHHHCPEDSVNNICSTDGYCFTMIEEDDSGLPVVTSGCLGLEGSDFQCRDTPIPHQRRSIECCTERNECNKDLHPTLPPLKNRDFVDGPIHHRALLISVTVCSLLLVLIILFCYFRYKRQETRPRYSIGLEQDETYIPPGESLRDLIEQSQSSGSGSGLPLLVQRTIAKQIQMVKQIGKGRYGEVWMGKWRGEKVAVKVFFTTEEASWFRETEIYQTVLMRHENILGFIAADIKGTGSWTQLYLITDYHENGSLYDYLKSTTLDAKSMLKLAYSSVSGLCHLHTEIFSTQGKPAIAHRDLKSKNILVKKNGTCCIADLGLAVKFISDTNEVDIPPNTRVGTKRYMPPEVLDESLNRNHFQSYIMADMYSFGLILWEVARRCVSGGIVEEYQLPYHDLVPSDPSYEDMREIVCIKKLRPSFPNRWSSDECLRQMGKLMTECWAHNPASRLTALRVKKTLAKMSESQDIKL
# Excerpt: as §1
# CSNK2A2 = CSNK2A2 (Homo sapiens, UniProt P19784); settings: 1000 nM, read-out: Percent Control
# Sequence of CSNK2A2 (P19784 whole entry): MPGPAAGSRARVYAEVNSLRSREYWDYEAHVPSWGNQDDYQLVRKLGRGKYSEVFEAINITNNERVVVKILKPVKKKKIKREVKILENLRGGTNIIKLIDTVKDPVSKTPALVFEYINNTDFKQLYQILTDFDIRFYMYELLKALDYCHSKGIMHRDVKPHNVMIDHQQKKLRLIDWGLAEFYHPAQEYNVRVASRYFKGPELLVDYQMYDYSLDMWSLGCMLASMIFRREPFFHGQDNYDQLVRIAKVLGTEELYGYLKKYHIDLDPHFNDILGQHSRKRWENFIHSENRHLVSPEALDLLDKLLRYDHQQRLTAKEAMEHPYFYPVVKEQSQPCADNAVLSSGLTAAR
# Excerpt: as §1
# FGFR3 = FGFR3 (Homo sapiens, UniProt P22607); settings: read-out: Percent Control
# Sequence of FGFR3 (P22607 23-806): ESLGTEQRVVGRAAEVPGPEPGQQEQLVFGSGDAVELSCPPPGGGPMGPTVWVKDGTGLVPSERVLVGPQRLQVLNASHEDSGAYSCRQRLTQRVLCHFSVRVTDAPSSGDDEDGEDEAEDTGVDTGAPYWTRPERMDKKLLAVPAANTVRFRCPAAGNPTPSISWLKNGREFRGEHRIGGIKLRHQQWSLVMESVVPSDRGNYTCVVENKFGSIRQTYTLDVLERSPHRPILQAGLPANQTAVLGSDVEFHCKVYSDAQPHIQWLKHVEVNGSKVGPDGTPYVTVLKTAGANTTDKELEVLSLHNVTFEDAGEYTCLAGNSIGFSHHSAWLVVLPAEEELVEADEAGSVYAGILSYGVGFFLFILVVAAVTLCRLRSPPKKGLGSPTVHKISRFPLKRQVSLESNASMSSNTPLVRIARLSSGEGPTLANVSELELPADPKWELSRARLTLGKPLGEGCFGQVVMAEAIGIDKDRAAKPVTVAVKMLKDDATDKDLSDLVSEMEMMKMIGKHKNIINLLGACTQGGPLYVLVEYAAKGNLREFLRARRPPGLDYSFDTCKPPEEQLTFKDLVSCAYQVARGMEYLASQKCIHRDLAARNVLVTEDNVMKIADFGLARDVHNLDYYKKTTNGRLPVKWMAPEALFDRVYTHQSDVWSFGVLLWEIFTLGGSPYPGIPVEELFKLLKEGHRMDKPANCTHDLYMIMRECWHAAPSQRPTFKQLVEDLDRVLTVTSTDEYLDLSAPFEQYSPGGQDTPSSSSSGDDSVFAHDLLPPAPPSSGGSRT
# Excerpt: as §1
# NEK7 = NEK7 (Homo sapiens, UniProt Q8TDX7); settings: 1000 nM, read-out: Percent Control
# Excerpt: as §1
# CAMKK1 = CAMKK1 (Homo sapiens, UniProt Q8N5S9); settings: 1000 nM, read-out: Percent Control
# Excerpt: as §1
# ASK2 = ASK2 (Homo sapiens, UniProt O95382); settings: 1000 nM, read-out: Percent Control
# Excerpt: as §1
# TGFBR1 = TGFBR1 (Homo sapiens, UniProt P36897); settings: compound concentration 100 nM; Entrez TGFBR1; read-out: Percent Control
# Excerpt: as §1
# MEK3 = MEK3 (Homo sapiens, UniProt P46734); settings: 1000 nM, read-out: Percent Control
# Excerpt: as §1
# CASK = CASK (Homo sapiens, UniProt O14936); settings: read-out: Percent Control
# Sequence of CASK (O14936 whole entry): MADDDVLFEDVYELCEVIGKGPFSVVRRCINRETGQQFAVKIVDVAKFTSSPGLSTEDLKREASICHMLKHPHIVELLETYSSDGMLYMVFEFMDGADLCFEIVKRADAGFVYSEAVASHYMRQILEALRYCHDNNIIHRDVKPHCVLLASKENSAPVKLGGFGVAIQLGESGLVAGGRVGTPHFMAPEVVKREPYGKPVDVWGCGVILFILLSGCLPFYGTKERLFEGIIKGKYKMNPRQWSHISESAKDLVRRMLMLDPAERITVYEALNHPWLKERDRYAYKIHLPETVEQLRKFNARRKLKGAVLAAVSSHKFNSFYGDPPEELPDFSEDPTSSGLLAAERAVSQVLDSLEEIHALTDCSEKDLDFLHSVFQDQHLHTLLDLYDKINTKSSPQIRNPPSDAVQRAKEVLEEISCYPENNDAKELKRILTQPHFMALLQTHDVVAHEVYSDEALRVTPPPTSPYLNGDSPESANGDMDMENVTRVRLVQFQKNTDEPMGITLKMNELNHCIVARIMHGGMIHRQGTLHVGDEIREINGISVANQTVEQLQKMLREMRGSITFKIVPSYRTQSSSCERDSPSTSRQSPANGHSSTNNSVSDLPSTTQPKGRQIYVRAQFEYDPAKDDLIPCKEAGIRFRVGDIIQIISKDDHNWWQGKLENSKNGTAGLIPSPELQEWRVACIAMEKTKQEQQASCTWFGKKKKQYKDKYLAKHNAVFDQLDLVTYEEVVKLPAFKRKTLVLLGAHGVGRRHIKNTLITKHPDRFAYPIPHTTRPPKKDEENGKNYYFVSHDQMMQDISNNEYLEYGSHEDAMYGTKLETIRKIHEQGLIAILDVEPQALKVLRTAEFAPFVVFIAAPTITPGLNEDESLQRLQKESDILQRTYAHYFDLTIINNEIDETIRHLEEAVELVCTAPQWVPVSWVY
# Excerpt: as §1
# CDKL1 = CDKL1 (Homo sapiens, UniProt Q00532); settings: read-out: Percent Control
# Sequence of CDKL1 (Q00532 whole entry): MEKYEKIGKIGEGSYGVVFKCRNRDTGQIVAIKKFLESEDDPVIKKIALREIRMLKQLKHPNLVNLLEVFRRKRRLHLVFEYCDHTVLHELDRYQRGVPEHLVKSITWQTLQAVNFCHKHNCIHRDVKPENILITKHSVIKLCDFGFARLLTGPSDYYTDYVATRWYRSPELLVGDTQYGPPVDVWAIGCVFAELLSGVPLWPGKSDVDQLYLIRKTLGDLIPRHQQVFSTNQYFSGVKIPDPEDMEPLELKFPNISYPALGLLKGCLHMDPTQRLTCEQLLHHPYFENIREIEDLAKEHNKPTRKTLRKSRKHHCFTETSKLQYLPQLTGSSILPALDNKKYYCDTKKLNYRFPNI
# Excerpt: as §1
# MAPKAPK5 = MAPKAPK5 (Homo sapiens, UniProt Q8IW41); settings: compound concentration 100 nM; Entrez MAPKAPK5; read-out: Percent Control
# Excerpt: as §1
# TLK1 = TLK1 (Homo sapiens, UniProt Q9UKI8); settings: compound concentration 100 nM; Entrez TLK1; read-out: Percent Control
# Excerpt: as §1
# CTK = CTK (Homo sapiens, UniProt P42679); settings: 1000 nM, read-out: Percent Control
# Excerpt: as §1
# MLK2 = MLK2 (Homo sapiens, UniProt Q02779); settings: 1000 nM, read-out: Percent Control
# Excerpt: as §1
# IGF1R = IGF1R (Homo sapiens, UniProt P08069); settings: read-out: Percent Control
# Sequence of IGF1R (P08069 31-1367): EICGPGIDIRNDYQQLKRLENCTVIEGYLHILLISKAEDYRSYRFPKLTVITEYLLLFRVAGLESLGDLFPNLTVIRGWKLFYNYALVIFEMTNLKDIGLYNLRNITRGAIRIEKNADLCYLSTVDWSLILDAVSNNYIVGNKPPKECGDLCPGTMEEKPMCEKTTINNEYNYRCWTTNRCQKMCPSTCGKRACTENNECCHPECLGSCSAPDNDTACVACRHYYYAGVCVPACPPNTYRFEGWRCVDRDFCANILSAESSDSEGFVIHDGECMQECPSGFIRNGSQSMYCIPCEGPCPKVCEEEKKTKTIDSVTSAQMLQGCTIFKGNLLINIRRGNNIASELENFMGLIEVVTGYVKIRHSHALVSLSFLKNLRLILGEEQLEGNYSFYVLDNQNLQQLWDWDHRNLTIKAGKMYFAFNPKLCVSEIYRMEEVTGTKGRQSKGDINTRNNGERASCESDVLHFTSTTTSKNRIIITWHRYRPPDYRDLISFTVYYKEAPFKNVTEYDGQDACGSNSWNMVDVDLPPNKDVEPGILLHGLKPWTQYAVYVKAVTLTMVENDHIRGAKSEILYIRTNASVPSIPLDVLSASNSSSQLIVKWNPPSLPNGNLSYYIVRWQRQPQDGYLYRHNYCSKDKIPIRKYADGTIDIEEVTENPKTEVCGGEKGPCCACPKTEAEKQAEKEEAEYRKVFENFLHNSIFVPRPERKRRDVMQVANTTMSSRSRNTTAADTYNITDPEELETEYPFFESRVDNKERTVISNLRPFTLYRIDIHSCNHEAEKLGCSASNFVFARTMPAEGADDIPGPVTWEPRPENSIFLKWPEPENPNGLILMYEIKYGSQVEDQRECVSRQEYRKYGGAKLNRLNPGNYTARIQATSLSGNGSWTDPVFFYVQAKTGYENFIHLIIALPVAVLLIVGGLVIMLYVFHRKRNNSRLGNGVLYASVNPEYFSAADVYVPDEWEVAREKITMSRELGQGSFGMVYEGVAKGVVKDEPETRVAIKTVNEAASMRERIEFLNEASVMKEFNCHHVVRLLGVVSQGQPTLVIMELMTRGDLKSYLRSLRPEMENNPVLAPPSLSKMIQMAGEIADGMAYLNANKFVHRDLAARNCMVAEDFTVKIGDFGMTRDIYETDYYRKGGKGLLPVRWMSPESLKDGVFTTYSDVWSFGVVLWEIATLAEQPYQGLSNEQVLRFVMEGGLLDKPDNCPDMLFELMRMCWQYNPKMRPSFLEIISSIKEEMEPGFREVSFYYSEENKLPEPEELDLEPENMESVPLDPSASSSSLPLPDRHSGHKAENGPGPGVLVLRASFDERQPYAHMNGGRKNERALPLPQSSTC
# Excerpt: as §1
# ERK2 = ERK2 (Homo sapiens, UniProt P28482); settings: 1000 nM, read-out: Percent Control
# Excerpt: as §1
# HIPK4 = HIPK4 (Homo sapiens, UniProt Q8NE63); settings: 1000 nM, read-out: Percent Control
# Excerpt: as §1
# PIM1 = PIM1 (Homo sapiens, UniProt P11309); settings: 1000 nM, read-out: Percent Control
# Excerpt: as §1
# MARK2 = MARK2 (Homo sapiens, UniProt Q7KZI7); settings: 1000 nM, read-out: Percent Control
# Excerpt: as §1
# PIK4CB = PIK4CB (Homo sapiens, UniProt Q9UBF8); settings: 1000 nM, read-out: Percent Control
# Excerpt: as §1
# EPHA6 = EPHA6 (Homo sapiens, UniProt Q9UF33); settings: 1000 nM, read-out: Percent Control
# Excerpt: as §1
compound,measurement,setting,value
"CN1C(=O)[C@@H](N2CCc3c(nn(Cc4ccccc4)c3C(N)=O)C2=O)COc2cc(Cl)ccc21 [Compound 10, (S)-2-benzyl-6-(8-chloro-5-methyl-4-oxo-2,3,4,5-tetrahydrobenzo[b][1,4]oxazepin-3-yl)-7-oxo-4,5,6,7-tetrahydro-2H-pyrazolo[3,4-c]pyridine-3-carboxamide]",remaining binding at 0.1 µM,SRPK3,100%
same,remaining binding at 1 µM,ROS1,88%
same,remaining binding at 1 µM,EIF2AK1,94%
same,remaining binding at 1 µM,[1],85%
same,remaining binding at 0.1 µM,VRK2,77%
same,remaining binding at 1 µM,PRKD3,92%
same,remaining binding at 1 µM,YES,90%
same,remaining binding at 1 µM,ERBB3,85%
same,remaining binding at 1 µM,PYK2,82%
same,remaining binding at 0.1 µM,NEK1,76%
same,remaining binding at 0.1 µM,MEK4,100%
same,remaining binding at 1 µM,DLK,81%
same,remaining binding at 1 µM,PKAC-beta,87%
same,remaining binding at 1 µM,CDK9,85%
same,remaining binding at 1 µM,WNK3,69%
same,remaining binding at 1 µM,[2],93%
same,remaining binding at 1 µM,BMPR1B; 1000 nM,100%
same,remaining binding at 0.1 µM,"BMPR1B; compound concentration 100 nM, Entrez BMPR1B",88%
same,remaining binding at 1 µM,CSNK2A2,88%
same,remaining binding at 1 µM,FGFR3; 1000 nM,100%
same,remaining binding at 0.1 µM,"FGFR3; compound concentration 100 nM, Entrez FGFR3",100%
same,remaining binding at 1 µM,NEK7,93%
same,remaining binding at 1 µM,CAMKK1,74%
same,remaining binding at 1 µM,ASK2,90%
same,remaining binding at 0.1 µM,TGFBR1,100%
same,remaining binding at 1 µM,MEK3,97%
same,remaining binding at 1 µM,CASK; 1000 nM,100%
same,remaining binding at 0.1 µM,"CASK; compound concentration 100 nM, Entrez CASK",80%
same,remaining binding at 1 µM,CDKL1; 1000 nM,99%
same,remaining binding at 0.1 µM,"CDKL1; compound concentration 100 nM, Entrez CDKL1",96%
same,remaining binding at 0.1 µM,MAPKAPK5,96%
same,remaining binding at 0.1 µM,TLK1,88%
same,remaining binding at 1 µM,CTK,97%
same,remaining binding at 1 µM,MLK2,94%
same,remaining binding at 1 µM,IGF1R; 1000 nM,100%
same,remaining binding at 0.1 µM,"IGF1R; compound concentration 100 nM, Entrez IGF1R",88%
same,remaining binding at 1 µM,ERK2,95%
same,remaining binding at 1 µM,HIPK4,87%
same,remaining binding at 1 µM,PIM1,78%
same,remaining binding at 1 µM,MARK2,81%
same,remaining binding at 1 µM,PIK4CB,75%
same,remaining binding at 1 µM,EPHA6,86%
